Article PMC4795166, “Design of a MCoTI-Based Cyclotide with Angiotensin (1-7)-Like Activity” (Molecules, 2016)

Target: T1, recombinant human MAS1 (Homo sapiens, UniProt P04201)
T1 construct: expressed in transfected cells; host or cells: CHO cells stably transfected with pTEJ-8 vector
T1 sequence (P04201 1-325): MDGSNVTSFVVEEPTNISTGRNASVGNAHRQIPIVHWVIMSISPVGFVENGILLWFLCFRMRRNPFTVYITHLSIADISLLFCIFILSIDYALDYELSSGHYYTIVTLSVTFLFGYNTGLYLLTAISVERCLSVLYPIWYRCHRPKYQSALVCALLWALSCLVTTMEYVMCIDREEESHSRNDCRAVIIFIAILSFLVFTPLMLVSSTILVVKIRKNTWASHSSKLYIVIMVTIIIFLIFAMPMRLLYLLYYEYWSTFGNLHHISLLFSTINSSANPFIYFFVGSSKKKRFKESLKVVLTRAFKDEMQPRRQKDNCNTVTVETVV
Experiment: MAS1 receptor activation, cell-based fluorescence assay of NO release in CHO cells
Conditions: absence of antagonist, MAS1 stably transfected CHO cells, 2 h incubation, two experiments
Experimental: Next, we tested the ability of cyclotide MCo-AT1-7 to activate the MAS1 receptor using CHO cells stably transfected with pTEJ-8 vector expressing recombinant human MAS1 in a cell-based fluorescence assay to detect the amount of NO release (Figure 5). […] The activity of the cyclotide MCo-AT1-7 was estimated to be ≈90% of that of peptide AT1-7 at 10 nM in this assay.
CHO cells stably transfected with pTEJ-8 vector expressing recombinant human MAS1 clone are grown to confluency. After washing, cells were incubated for a short time in 700 µL of supplemented Tyrode’s salts containing 10 µM 2-phenyl-4,4,5,5-tetramethylimidazoline-1-oxyl-3-oxide (PTIO), 100 µM 2,6-diaminonaftalene (DAN), and 1 mM L-arginine. When using antagonist for competition assays, cells are exposed to MAS1 antagonist A779 (D-Ala^7-AT 1-7) at 0.1 µM for 15 min before addition of the cyclotides to be tested. Different concentrations of the cyclotides to be analyzed are added to the cell medium and the plates are agitated for 1 min before being placed into the incubator for 2 h. After 2 h, the cellular supernatants are transferred to opaque 96 well plates, and the amount of released NO is measured by fluorescence (λex = 380 nm, λem = 425 nm).

SMILES: CC[C@H](C)[C@H](NC(=O)[C@H](Cc1ccc(O)cc1)NC(=O)[C@@H](NC(=O)[C@H](CCCNC(=N)N)NC(=O)[C@@H](N)CC(=O)O)C(C)C)C(=O)N[C@@H](Cc1c[nH]cn1)C(=O)N1CCC[C@H]1C(=O)O [AT1-7, angiotensin (1-7)]
- MAS1 activation: increase of intracellular NO concentration: increase the intracellular concentration of NO in a dose dependent manner
